Laboratory results taken from patent US4308267A, “7-[2-Alkoxyimino-2-(amino-thiazole)acetami do]-3-[1-(sulfaminoalkly)tetrazolthiomethyl]cephalosporins” (SmithKline Corporation, priority 1980, dated 1981).
≈ marks a conversion by molar mass, not a printed value. Where a name gives a salt, the structure may show the parent alone.

Tests used:
S. aureus HH 127 = assay: standard in vivo antibacterial test in mice, ED50 (Table 2); settings: Staphylococcus aureus
Text: (§1) Table 2 sets forth ED50 's for Compound A, cefamandole and cefatoxime.

E. coli 12140 = assay: as above; settings: Escherichia coli
Text: as §1

Pseudo. aeruginosa 647 = assay: minimum inhibitory concentration, in vitro screen (Table I, strain 16); type: cell-based; settings: Pseudomonas aeruginosa
Text: (§2) The compounds of this invention are useful as broad spectrum antibacterial agents against both Gram-positive and Gram-negative organisms. […] Data for 7-[syn-2-methoxyimino-2-(2-amino-4-thiazolyl)acetamido]cephalosporanic acid (cefatoxime) are also included for comparison.

[1] = system: Serratia marcescens ATCC 13880; assay: minimum inhibitory concentration, in vitro screen (Table I, strain 12); type: cell-based; settings: ATCC13880
Text: as §2

Strep. faecalis HH 34358 = assay: minimum inhibitory concentration, in vitro screen (Table I, strain 4); type: cell-based; settings: Enterococcus faecalis, HH34358
Text: as §2

Staph. aureus 671 = assay: minimum inhibitory concentration, in vitro screen (Table I, strain 2); type: cell-based; settings: Staphylococcus aureus; Staph. aureus 671, lactamase producer
Text: as §2

[2] = system: Kleb. pneumoniae SK&F 1200; assay: minimum inhibitory concentration, in vitro screen (Table I, strain 8); type: cell-based; settings: Klebsiella pneumoniae
Text: as §2

Staph. aureus 674 = assay: minimum inhibitory concentration, in vitro screen (Table I, strain 3); type: cell-based; settings: Staphylococcus aureus
Text: as §2

Enterobacter cloacae 921 = assay: minimum inhibitory concentration, in vitro screen (Table I, strain 15); type: cell-based
Text: as §2

Kleb. pneumoniae 982 = assay: minimum inhibitory concentration, in vitro screen (Table I, strain 9); type: cell-based; settings: Klebsiella pneumoniae; Kleb. pneumoniae 982, lactamase producer
Text: as §2

[3] = system: Kleb. pneumoniae SK&F 4200; assay: minimum inhibitory concentration, in vitro screen (Table I, strain 7); type: cell-based; settings: Klebsiella pneumoniae
Text: as §2

[4] = system: Enterobacter aerogenes ATCC 13048; assay: minimum inhibitory concentration, in vitro screen (Table I, strain 14); type: cell-based; settings: Klebsiella aerogenes, ATCC13048
Text: as §2

[5] = pharmacokinetics in mouse (Table 3); type: in vivo; settings: for half-life: in vivo; for half-life / concentration at 2 h / Cmax / dose excreted: mouse, 20 mg/kg; for concentration at 2 h / Cmax: serum; for concentration at 2 h: read-out: Serum Level at 2 hrs.; for Cmax: read-out: Peak Serum Level; for dose excreted: urine, read-out: Urinary Recovery
Proteus morgani 179 = assay: minimum inhibitory concentration, in vitro screen (Table I, strain 13); type: cell-based
Text: as §2

Pseudo. aeruginosa HH 63 = assay: minimum inhibitory concentration, in vitro screen (Table I, strain 11); type: cell-based; settings: Pseudomonas aeruginosa, HH63
Text: as §2

E. coli SK&F 12140 = assay: minimum inhibitory concentration, in vitro screen (Table I, strain 5); type: cell-based; settings: Escherichia coli
Text: as §2

E. coli 804 = assay: minimum inhibitory concentration, in vitro screen (Table I, strain 6); type: cell-based; settings: Escherichia coli; E. coli 804, lactamase producer
Text: as §2

in vitro = in vitro ADME; settings: human serum proteins; read-out: Binding to Human Serum Proteins (converted)
Staph. aureus HH 127 = assay: minimum inhibitory concentration, in vitro screen (Table I, strain 1); type: cell-based; settings: Staphylococcus aureus, HH127; Staph. aureus HH 127, lactamase producer
Text: as §2

P. mirabilis PM-444 = assay: minimum inhibitory concentration, in vitro screen (Table I, strain 10); type: cell-based; settings: Proteus mirabilis, PM444
Text: as §2

bacterial infections = assay: standard in vivo tests in mice (general statement)
Text: as §1

[6] = system: Gram-negative bacteria including those which are β-lactamase producers; assay: standard in vitro screens (general statement); type: cell-based; settings: especially against Gram-negative bacteria including β-lactamase producers
Text: as §2

Compound | MIC (Pseudo. aeruginosa 647) [µg/mL] | MIC [1] [µg/mL] | MIC (Strep. faecalis HH 34358) [µg/mL] | MIC (Staph. aureus 671) [µg/mL] | MIC [2] [µg/mL] | MIC (Staph. aureus 674) [µg/mL] | MIC (Enterobacter cloacae 921) [µg/mL] | MIC (Kleb. pneumoniae 982) [µg/mL] | MIC [3] [µg/mL] | MIC [4] [µg/mL] | half-life [5] [min] | concentration at 2 h [5] [ng/mL] | Cmax [5] [ng/mL] | dose excreted [5] [%] | MIC (Proteus morgani 179) [µg/mL] | MIC (Pseudo. aeruginosa HH 63) [µg/mL] | MIC (E. coli SK&F 12140) [µg/mL] | MIC (E. coli 804) [µg/mL] | fraction unbound (in vitro) | MIC (Staph. aureus HH 127) [µg/mL] | also measured
Cn1nnnc1SCC1=C(C(=O)O)N2C(=O)[C@@H](NC(=O)[C@H](O)c3ccccc3)[C@H]2SC1 [Cefamandole] | > 100 | 12.5 (≈ 27 µM) | 25 (≈ 54.1 µM) | 6.3 (≈ 13.6 µM) | 0.4 (≈ 0.865 µM) | ≤ 0.1 | 3.1 (≈ 6.7 µM) | > 100 | 1.6 (≈ 3.46 µM) | 1.6 (≈ 3.46 µM) | 12 | 1000 | 34000 | 45 | 1.6 (≈ 3.46 µM) | > 100 | 0.8 (≈ 1.73 µM) | > 100 | 0.39 | 1.6 (≈ 3.46 µM) | ED50 (S. aureus HH 127; HH127, * representative value): 2.2 mg/kg; ED50 (E. coli 12140; * representative value): 0.9 mg/kg; MIC (P. mirabilis PM-444): 0.4 µg/mL (≈ 0.865 µM)
CO/N=C(\C(=O)N[C@@H]1C(=O)N2C(C(=O)O)=C(COC(C)=O)CS[C@H]12)c1csc(N)n1 [Cefatoxime, 7-[syn-2-methoxyimino-2-(2-amino-4-thiazolyl)acetamido]cephalosporanic acid] | 3.1 (≈ 6.81 µM) | ≤ 0.1 | > 100 | 0.4 (≈ 0.878 µM) | ≤ 0.1 | 0.8 (≈ 1.76 µM) | ≤ 0.1 | 0.2 (≈ 0.439 µM) | ≤ 0.1 | ≤ 0.1 | 27 | < 1000 | 25000 | 13 | ≤ 0.1 | 6.3 (≈ 13.8 µM) | ≤ 0.1 | 0.2 (≈ 0.439 µM) | 0.61 | 1.6 (≈ 3.51 µM) | ED50 (S. aureus HH 127; HH127): 10.5 mg/kg; ED50 (E. coli 12140): < 0.2 mg/kg; MIC (P. mirabilis PM-444): ≤ 0.1 µg/mL
CO/N=C(\C(=O)N[C@@H]1C(=O)N2C(C(=O)O)=C(CSc3nnnn3CCNS(=O)(=O)O)CS[C@H]12)c1csc(N)n1 [Compound A, 7-[syn-2-methoxyimino-2-(2-amino-4-thiazolyl)acetamido]-3-[1-(2-sulfaminoethyl)tetrazo-5-ylthiomethyl]-3-cephem-4-carboxylic acid disodium salt] | 6.3 | ≤ 0.1 | > 100 | 3.1 | ≤ 0.1 | 6.3 | 0.2 | 1.6 | ≤ 0.1 | 0.2 | 114 | 52000 | 78000 | 24 | ≤ 0.1 | 12.5 | ≤ 0.1 | 0.4 | 0.3 | 6.3 | ED50 (S. aureus HH 127; HH127): 21 mg/kg; ED50 (E. coli 12140): 0.4 mg/kg; antibacterial activity in standard in vivo tests (bacterial infections): high antibacterial activity; peak serum levels, serum levels at two hours and half-life ([5]; compared to cefatoxime and cefamandole): better for Compound A compared to cefatoxime and cefamandole; pharmacokinetic properties ([5]; general statement): unexpected improved pharmacokinetic properties; activity in standard in vitro screens [6]: high activity; MIC (P. mirabilis PM-444): ≤ 0.1 µg/mL
